Results from article PMC3390922 (The Journal of Neuroscience, 2010).
pEC50, pKd: −log10 of the molar value. “And” between values parts separate entries of the source, which are not always exact repeats. Identical values can stand only once. Counter-ions that a name gives are not always drawn.

Assays:
D1/D5 dopamine receptors = assay: Saturation binding of [3H]-SCH23390 to membranes; design: species or system mouse; conditions: membranes from C57Bl/6 mice (data not shown)
D2/D3 dopamine receptors = assay: Saturation binding of [3H]-raclopride to membranes; design: species or system mouse; conditions: membranes from C57Bl/6 mice (data not shown)
(non-α6) α4β2* nAChRs = (non-α6) α4β2* nAChRs (Mus musculus, UniProt O70174+Q9ERK7)
(non-α6) α4β2* nAChRs, sequence (O70174 31-629): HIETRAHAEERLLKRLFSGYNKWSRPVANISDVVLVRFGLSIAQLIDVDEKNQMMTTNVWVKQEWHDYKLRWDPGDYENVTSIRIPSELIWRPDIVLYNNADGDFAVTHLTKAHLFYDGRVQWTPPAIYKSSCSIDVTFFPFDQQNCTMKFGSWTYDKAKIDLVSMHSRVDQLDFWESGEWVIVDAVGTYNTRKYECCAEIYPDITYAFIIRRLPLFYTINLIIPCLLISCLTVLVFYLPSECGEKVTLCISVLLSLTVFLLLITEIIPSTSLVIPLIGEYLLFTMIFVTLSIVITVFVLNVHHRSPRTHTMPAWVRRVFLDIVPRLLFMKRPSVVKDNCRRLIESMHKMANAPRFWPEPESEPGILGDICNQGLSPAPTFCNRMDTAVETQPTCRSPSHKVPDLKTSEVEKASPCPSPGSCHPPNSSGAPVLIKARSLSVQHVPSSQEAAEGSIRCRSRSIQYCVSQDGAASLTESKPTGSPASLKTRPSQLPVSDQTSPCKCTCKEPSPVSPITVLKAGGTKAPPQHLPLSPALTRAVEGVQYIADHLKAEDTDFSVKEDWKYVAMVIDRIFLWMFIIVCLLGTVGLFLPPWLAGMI
(non-α6) α4β2* nAChRs, sequence (Q9ERK7 26-501): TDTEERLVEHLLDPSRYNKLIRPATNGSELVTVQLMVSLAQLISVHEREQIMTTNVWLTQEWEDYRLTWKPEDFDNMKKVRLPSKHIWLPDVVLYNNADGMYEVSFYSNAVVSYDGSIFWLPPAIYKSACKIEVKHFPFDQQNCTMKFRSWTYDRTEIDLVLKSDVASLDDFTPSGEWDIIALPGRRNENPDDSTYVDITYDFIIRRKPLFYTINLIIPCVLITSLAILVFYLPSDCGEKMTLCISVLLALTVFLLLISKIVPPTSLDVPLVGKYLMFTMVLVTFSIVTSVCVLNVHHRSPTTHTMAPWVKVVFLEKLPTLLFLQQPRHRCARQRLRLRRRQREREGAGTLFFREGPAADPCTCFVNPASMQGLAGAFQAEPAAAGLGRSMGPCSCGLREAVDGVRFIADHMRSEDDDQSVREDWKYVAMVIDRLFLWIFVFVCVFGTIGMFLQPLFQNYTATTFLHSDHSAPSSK

[1] = biological target: α6* nAChRs (αCtxMII-sensitive) in α4KO/α6^L9′S mice (Mus musculus, UniProt Q9ERK7+Q9R0W9, L280S)
α6* nAChRs (αCtxMII-sensitive) in α4KO/α6^L9′S mice, sequence (Q9ERK7 26-501, stated change not applied): as the sequence (Q9ERK7 26-501) above
α6* nAChRs (αCtxMII-sensitive) in α4KO/α6^L9′S mice, sequence (Q8BMN3 31-464, further chain): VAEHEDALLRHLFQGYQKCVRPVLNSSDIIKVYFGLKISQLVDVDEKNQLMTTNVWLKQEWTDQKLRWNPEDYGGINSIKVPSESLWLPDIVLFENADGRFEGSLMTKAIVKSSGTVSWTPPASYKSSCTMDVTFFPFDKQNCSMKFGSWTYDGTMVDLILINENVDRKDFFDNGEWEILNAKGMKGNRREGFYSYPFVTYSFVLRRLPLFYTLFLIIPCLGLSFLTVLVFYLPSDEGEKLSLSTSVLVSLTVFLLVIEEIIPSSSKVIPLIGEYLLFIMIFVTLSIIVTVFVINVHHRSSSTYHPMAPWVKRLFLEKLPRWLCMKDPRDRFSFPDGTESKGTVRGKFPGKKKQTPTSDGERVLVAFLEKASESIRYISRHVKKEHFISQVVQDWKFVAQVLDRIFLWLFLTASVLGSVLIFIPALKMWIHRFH
α6* nAChRs (αCtxMII-sensitive) in α4KO/α6^L9′S mice, sequence (Q9R0W9 31-494 L280S): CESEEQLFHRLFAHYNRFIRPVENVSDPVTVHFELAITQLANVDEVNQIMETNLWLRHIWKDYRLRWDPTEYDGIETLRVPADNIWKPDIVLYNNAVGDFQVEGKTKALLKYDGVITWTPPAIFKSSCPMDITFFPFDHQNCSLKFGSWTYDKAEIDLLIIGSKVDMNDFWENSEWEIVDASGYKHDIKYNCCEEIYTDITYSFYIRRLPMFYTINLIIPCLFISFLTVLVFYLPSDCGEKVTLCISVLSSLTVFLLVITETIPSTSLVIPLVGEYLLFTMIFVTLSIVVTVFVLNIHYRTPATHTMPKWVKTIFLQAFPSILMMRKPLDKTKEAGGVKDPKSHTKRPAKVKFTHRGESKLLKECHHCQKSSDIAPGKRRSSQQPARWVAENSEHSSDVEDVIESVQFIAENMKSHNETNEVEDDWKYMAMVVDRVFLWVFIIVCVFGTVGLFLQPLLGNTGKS

[2] = biological target: α6* nAChRs (αCtxMII-sensitive, α6β2*) (Mus musculus, UniProt Q9ERK7+Q9R0W9)
α6* nAChRs (αCtxMII-sensitive, α6β2*), sequence (Q9R0W9 31-494): as the sequence (Q9R0W9 31-494 L280S) above, with S250L counted along it
α6* nAChRs (αCtxMII-sensitive, α6β2*), sequence (Q9ERK7 26-501): as the sequence (Q9ERK7 26-501) above
α6* nAChRs (αCtxMII-sensitive, α6β2*), sequence (O70174 31-629, further chain): as the sequence (O70174 31-629) above
α6* nAChRs (αCtxMII-sensitive, α6β2*), sequence (Q8BMN3 31-464, further chain): as the sequence (Q8BMN3 31-464, further chain) above

[3] = biological target: α6* nAChRs (αCtxMII-sensitive) in α4KO mice (Mus musculus, UniProt Q9ERK7+Q9R0W9)
α6* nAChRs (αCtxMII-sensitive) in α4KO mice, sequence (Q9ERK7 26-501): as the sequence (Q9ERK7 26-501) above
α6* nAChRs (αCtxMII-sensitive) in α4KO mice, sequence (Q8BMN3 31-464, further chain): as the sequence (Q8BMN3 31-464, further chain) above
α6* nAChRs (αCtxMII-sensitive) in α4KO mice, sequence (Q9R0W9 31-494): as the sequence (Q9R0W9 31-494 L280S) above, with S250L counted along it

[4] = tested on: WT, α6^L9′S, α4KO, and α4KO/α6^L9′S mice; conditions: mouse, in vivo
[5] = biological target: (non-α6) α4β2* nAChRs in α6^L9′S mice (Mus musculus, UniProt O70174+Q9ERK7)
(non-α6) α4β2* nAChRs in α6^L9′S mice, sequence (O70174 31-629): as the sequence (O70174 31-629) above
(non-α6) α4β2* nAChRs in α6^L9′S mice, sequence (Q9ERK7 26-501): as the sequence (Q9ERK7 26-501) above

α6α4β2β3 nAChRs = conditions: cited from earlier work
[6] = in vivo; cited from earlier work
[7] = tested on: DA release in striatal slices; design: species or system mouse

CN1CCc2cc(Cl)c(O)cc2[C@@H](c2ccccc2)C1 [[^3H]-SCH23390]
pKd (D1/D5 dopamine receptors): ~10.00

CCN1CCC[C@H]1CNC(=O)c1c(O)c(Cl)cc(Cl)c1OC [[^3H]-raclopride]
pKd (D2/D3 dopamine receptors): ~8.70

CN1CCC[C@H]1c1cccnc1 [nicotine, (-)-nicotine tartrate]
Rmax ((non-α6) α4β2* nAChRs): 15.8 ± 0.5 units and 14.5 ± 0.5 units | Rmax [1]: 5.24 ± 0.24 units and 4.16 ± 0.06 units | Rmax [2]: 4.6 ± 0.3 units and 3.2 ± 0.3 units | Rmax [3]: 3.83 ± 0.13 units and 3.63 ± 0.15 units | potency and efficacy for locomotor activation [4]: consistently reduced | peak locomotor response ([4]; ip, 0.2 mg/kg): 93 ± 14 ambulations/min and 53 ± 4 ambulations/min | Rmax [5]: 7.8 ± 0.2 units and 7.4 ± 0.4 units | pEC50 (α6α4β2β3 nAChRs): 6.64 | concentration in brain CSF [6]: 100 to 500 nM

NC1=N[C@H](O)[C@H]2[C@H]3O[C@]4(O)O[C@@H]([C@@H](O)[C@@]2(N1)[C@@H]4O)[C@]3(O)CO [tetrodotoxin]
effect on evoked DA release responses [7]: blocked
